Source: US11053204B2, “Pyrimidinyloxy benzene derivatives as herbicides” (FMC Corporation, priority 2015, dated 2021)

Legend:
Assay type in all cases: in vivo
[1] = tested on: johnsongrass (Sorghum halepense); assay: Test C preemergence, plant response rating
[2] = tested on: galium (catchweed bedstraw, Galium aparine); assay: Test C preemergence, plant response rating
[3] = tested on: pigweed, palmer (palmer pigweed, Amaranthus palmeri); assay: Test C preemergence, plant response rating
[4] = tested on: geranium, cutleaf (cutleaf geranium, Geranium dissectum); assay: Test C postemergence, plant response rating; details: for Plant response rating, Geranium, Cutleaf: scale 0 to 100; for Geranium, Cutleaf plant response rating: scale 0 to 100 (0 no effect, 100 complete control)
Summary of the method: (§1)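 Visual injury score, 0 = no effect, 100 = complete control, assigned against untreated controls after 13 to 15 d in the greenhouse. Compounds were applied in a surfactant-containing non-phytotoxic solvent mix, preemergence to seeded loam/sand or silt loam soil, or postemergence to 1- to 4-leaf plants (2 to 18 cm).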

[5] = tested on: wild poinsettia (Euphorbia heterophylla); assay: Test C postemergence, plant response rating; details: for Plant response rating, Poinsettia, Wild: scale 0 to 100; for Poinsettia, Wild plant response rating: scale 0 to 100 (0 no effect, 100 complete control)
Summary of the method: as §1

[6] = tested on: field violet (Viola arvensis); assay: Test C postemergence, plant response rating; details: for Plant response rating, Field Violet: scale 0 to 100; for Field Violet plant response rating: scale 0 to 100 (0 no effect, 100 complete control)
Summary of the method: as §1

[7] = tested on: surinam grass (Brachiaria decumbens); assay: Test C postemergence, plant response rating; details: for Plant response rating, Surinam Grass: scale 0 to 100; for Surinam Grass plant response rating: scale 0 to 100 (0 no effect, 100 complete control)
Summary of the method: as §1

[8] = tested on: johnsongrass (Sorghum halepense); assay: Test C postemergence, plant response rating; details: for Plant response rating, Johnsongrass: scale 0 to 100; for Johnsongrass plant response rating: scale 0 to 100 (0 no effect, 100 complete control)
Summary of the method: as §1

[9] = tested on: Canada thistle (Cirsium arvense); assay: Test C postemergence, plant response rating; details: for Plant response rating, Canada Thistle: scale 0 to 100; for Canada Thistle plant response rating: scale 0 to 100 (0 no effect, 100 complete control)
Summary of the method: as §1

[10] = tested on: speedwell (bird's-eye speedwell, Veronica persica); assay: Test C postemergence, plant response rating; details: for Plant response rating, Speedwell: scale 0 to 100; for Speedwell plant response rating: scale 0 to 100 (0 no effect, 100 complete control)
Summary of the method: as §1

[11] = tested on: buckwheat, wild (wild buckwheat, Polygonum convolvulus); assay: Test C postemergence, plant response rating; details: for Plant response rating, Buckwheat, Wild: scale 0 to 100; for Buckwheat, Wild plant response rating: scale 0 to 100 (0 no effect, 100 complete control)
Summary of the method: as §1

[12] = tested on: windgrass (Apera spica-venti); assay: Test C postemergence, plant response rating; details: for Plant response rating, Windgrass: scale 0 to 100; for Windgrass plant response rating: scale 0 to 100 (0 no effect, 100 complete control)
Summary of the method: as §1

[13] = tested on: pigweed, palmer (palmer pigweed, Amaranthus palmeri); assay: Test C postemergence, plant response rating; details: for Plant response rating, Pigweed, Palmer: scale 0 to 100; for Pigweed, Palmer plant response rating: scale 0 to 100 (0 no effect, 100 complete control)
Summary of the method: as §1

[14] = tested on: nightshade (eastern black nightshade, Solanum ptycanthum); assay: Test C postemergence, plant response rating; details: for Plant response rating, Nightshade: scale 0 to 100; for Nightshade plant response rating: scale 0 to 100 (0 no effect, 100 complete control)
Summary of the method: as §1

[15] = tested on: field poppy (Papaver rhoeas); assay: Test C postemergence, plant response rating; details: for Plant response rating, Field Poppy: scale 0 to 100; for Field Poppy plant response rating: scale 0 to 100 (0 no effect, 100 complete control)
Summary of the method: as §1

kochia (Kochia scoparia) = assay: Test C preemergence, plant response rating
[16] = tested on: windgrass (Apera spica-venti); assay: Test C preemergence, plant response rating
[17] = tested on: barnyardgrass (Echinochloa crus-galli); assay: Test C preemergence, plant response rating; details: Preemergence

CCCC(=O)c1c(Br)cccc1Oc1ncc(Cl)cn1 [Compound 75]
Plant response rating, Johnsongrass ([1]; 16 g ai/ha, scale 0 to 100): 0
Plant response rating, Johnsongrass ([1]; 31 g ai/ha, scale 0 to 100): 0
Plant response rating, Johnsongrass ([1]; 62 g ai/ha, scale 0 to 100): 30
Plant response rating, Johnsongrass ([1]; 125 g ai/ha, scale of 0 to 100): 70
Plant response rating, Galium ([2]; 16 g ai/ha, scale 0 to 100): 0
Plant response rating, Galium ([2]; 31 g ai/ha, scale 0 to 100): 0
Plant response rating, Galium ([2]; 62 g ai/ha, scale of 0 to 100): 5
Plant response rating, Galium ([2]; 125 g ai/ha, scale of 0 to 100): 0
Plant response rating, Pigweed, Palmer ([3]; 16 g ai/ha, scale 0 to 100): 70
Plant response rating, Pigweed, Palmer ([3]; 31 g ai/ha, scale 0 to 100): 100
Plant response rating, Pigweed, Palmer ([3]; 62 g ai/ha, scale 0 to 100): 95
Plant response rating, Pigweed, Palmer ([3]; 125 g ai/ha, scale of 0 to 100): 100
Plant response rating, Geranium, Cutleaf ([4]; 16 g ai/ha): 30
Plant response rating, Geranium, Cutleaf ([4]; 31 g ai/ha): 40
Geranium, Cutleaf plant response rating ([4]; 62 g ai/ha): 35
Geranium, Cutleaf plant response rating ([4]; 125 g ai/ha): 65
Plant response rating, Poinsettia, Wild ([5]; 16 g ai/ha): 65
Plant response rating, Poinsettia, Wild ([5]; 31 g ai/ha): 70
Poinsettia, Wild plant response rating ([5]; 62 g ai/ha): 80
Poinsettia, Wild plant response rating ([5]; 125 g ai/ha): 80
Plant response rating, Field Violet ([6]; 16 g ai/ha): 80
Plant response rating, Field Violet ([6]; 31 g ai/ha): 98
Field Violet plant response rating ([6]; 62 g ai/ha): 98
Field Violet plant response rating ([6]; 125 g ai/ha): 100
Plant response rating, Surinam Grass ([7]; 16 g ai/ha): 10
Plant response rating, Surinam Grass ([7]; 31 g ai/ha): 15
Surinam Grass plant response rating ([7]; 62 g ai/ha): 20
Surinam Grass plant response rating ([7]; 125 g ai/ha): 20
Plant response rating, Johnsongrass ([8]; 16 g ai/ha): 5
Plant response rating, Johnsongrass ([8]; 31 g ai/ha): 10
Johnsongrass plant response rating ([8]; 62 g ai/ha): 10
Johnsongrass plant response rating ([8]; 125 g ai/ha): 70
Plant response rating, Canada Thistle ([9]; 16 g ai/ha): 70
Plant response rating, Canada Thistle ([9]; 31 g ai/ha): 75
Canada Thistle plant response rating ([9]; 62 g ai/ha): 75
Canada Thistle plant response rating ([9]; 125 g ai/ha): 100
Plant response rating, Speedwell ([10]; 16 g ai/ha): 90
Plant response rating, Speedwell ([10]; 31 g ai/ha): 95
Speedwell plant response rating ([10]; 62 g ai/ha): 100
Speedwell plant response rating ([10]; 125 g ai/ha): 100
Plant response rating, Buckwheat, Wild ([11]; 16 g ai/ha): 45
Plant response rating, Buckwheat, Wild ([11]; 31 g ai/ha): 60
Buckwheat, Wild plant response rating ([11]; 62 g ai/ha): 80
Buckwheat, Wild plant response rating ([11]; 125 g ai/ha): 85
Plant response rating, Windgrass ([12]; 16 g ai/ha): 0
Plant response rating, Windgrass ([12]; 31 g ai/ha): 5
Windgrass plant response rating ([12]; 62 g ai/ha): 10
Windgrass plant response rating ([12]; 125 g ai/ha): 5
Plant response rating, Pigweed, Palmer ([13]; 16 g ai/ha): 75
Plant response rating, Pigweed, Palmer ([13]; 31 g ai/ha): 90
Pigweed, Palmer plant response rating ([13]; 62 g ai/ha): 95
Pigweed, Palmer plant response rating ([13]; 125 g ai/ha): 85
Plant response rating, Nightshade ([14]; 16 g ai/ha): 75
Plant response rating, Nightshade ([14]; 31 g ai/ha): 80
Nightshade plant response rating ([14]; 62 g ai/ha): 85
Nightshade plant response rating ([14]; 125 g ai/ha): 98
Plant response rating, Field Poppy ([15]; 16 g ai/ha): 70
Plant response rating, Field Poppy ([15]; 31 g ai/ha): 80
Field Poppy plant response rating ([15]; 62 g ai/ha): 80
Field Poppy plant response rating ([15]; 125 g ai/ha): 100
Plant response rating, Kochia (kochia (Kochia scoparia); 16 g ai/ha, scale 0 to 100): 0
Plant response rating, Kochia (kochia (Kochia scoparia); 31 g ai/ha, scale 0 to 100): 50
Plant response rating, Kochia (kochia (Kochia scoparia); 62 g ai/ha, scale 0 to 100): 90
Plant response rating, Kochia (kochia (Kochia scoparia); 125 g ai/ha, scale of 0 to 100): 100
Plant response rating, Windgrass ([16]; 16 g ai/ha, scale 0 to 100): 5
Plant response rating, Windgrass ([16]; 31 g ai/ha, scale 0 to 100): 45
Plant response rating, Windgrass ([16]; 62 g ai/ha, scale 0 to 100): 100
Plant response rating, Windgrass ([16]; 125 g ai/ha, scale of 0 to 100): 100
Plant response rating, Barnyardgrass ([17]; 62 g ai/ha, scale of 0 to 100): 80
Plant response rating, Barnyardgrass ([17]; 125 g ai/ha, scale of 0 to 100): 100
Plant response rating, Barnyardgrass ([17]; 16 g ai/ha, scale 0 to 100): 5
Plant response rating, Barnyardgrass ([17]; 31 g ai/ha, scale 0 to 100): 60
